{
  "source": "patent US20120308590A1",
  "about": "“IMP-3 OLIGOPEPTIDES AND VACCINES INCLUDING THE SAME” (OncoTherapy Science, Inc., priority 2009, published 2012)",
  "type_in_all_cases": "cell-based, human",
  "key": {"[1]": {"test_system": "CD107a on the cell surface of CTLs", "assay": "CD107a exposure on the cell surface of CTLs (FACS)", "conditions": "CTLs specific to IMP-3-552-560 stimulated with the named peptide at 1 microgram/ml for 5 hours; mouse IgG staining 0.7%", "description": "The exposure of CD107a on the cell surface of the CTLs after antigen stimulation was detected by anti-CD107a antibody. […] These CTLs were cultured for 5 hours at 37 degrees C. and were subsequently stained with PE conjugated anti-human CD8 mAb. All peptides were used at a final concentration of 1 microgram/ml. Events shown are gated for CD8^+ T cells."}, "[2]": {"test_system": "MCF7/IMP-3 (MCF7 cells transfected with IMP-3 gene)", "assay": "51Cr release assay of peptide-induced CTLs against transfected cell line", "conditions": "CTL lines generated from the healthy donors (FIG. 5C)", "description": "(§1) The expression of IMP-3 was determined by reverse transcription-polymerase chain reaction analysis. […] The DCs were pulsed with 20 micro-g/mL of the candidate peptides in the presence of 4 micro-g/mL beta2-microglobulin (Sigma-Aldrich, St. Louis, Mo., USA) for 2 hours at 37 degrees C. in AIM-V (Invitrogen Japan, Tokyo, Japan) containing 2% heat-inactivated autologous plasma. The cells were then irradiated (40 Gy) and incubated with the CD8^+ T cells. […] After 2 days, these cultures were supplemented with human recombinant IL-2 (PeproTech, Rocky Hill, N.J., USA) to a final concentration of 20 IU/mL. Two additional weekly stimulations with peptide-loaded autologous DCs, using the same procedure, were carried out on days 7 and 14. Six days after the last stimulation, the antigen-specific responses of the induced CTLs were investigated by IFN-gamma ELISPOT assay and ^51Cr release assay. […] For ^51Cr release assay, CTLs were co-cultured with peptide-pulsed T2 cells or cancer cells as a target cells (5×10^3/well) at the indicated effector/target ratio and a standard ^51Cr release assay was done as described previously (Komori H et al., Clin Cancer Res. 2006 May 1; 12 (9):2689-97)."}, "SW620": {"test_system": "SW620", "assay": "51Cr release assay of peptide-induced CTLs against cancer cell line", "conditions": "CTL lines generated from the healthy donors (FIG. 5D)", "description": "as §1"}, "PANC-1 (IMP-3+, HLA-A2+)": {"test_system": "PANC-1 (IMP-3+, HLA-A2+)", "assay": "51Cr release assay of peptide-induced CTLs against cancer cell line", "description": "as §1"}, "A549 (IMP-3+, HLA-A2-)": {"test_system": "A549 (IMP-3+, HLA-A2-)", "assay": "51Cr release assay of peptide-induced CTLs against cancer cell line", "conditions": "for cytotoxicity: CTLs from lung cancer patient 14 (SEQ ID NOs: 3 and 5) and patient 4 (SEQ ID NO: 6) (FIG. 5B)", "description": "as §1"}, "SKHep1": {"test_system": "SKHep1", "assay": "51Cr release assay of peptide-induced CTLs against cancer cell line", "conditions": "CTL lines generated from the healthy donors (FIG. 5D)", "description": "as §1"}, "MCF7 (IMP-3-, HLA-A2+)": {"test_system": "MCF7 (IMP-3-, HLA-A2+)", "assay": "51Cr release assay of peptide-induced CTLs against cancer cell line", "description": "as §1"}, "[3]": {"test_system": "T2 cells pulsed with cognate peptides", "assay": "51Cr release assay of peptide-induced CTLs against peptide-pulsed T2 cells", "description": "The DCs were pulsed with 20 micro-g/mL of the candidate peptides in the presence of 4 micro-g/mL beta2-microglobulin (Sigma-Aldrich, St. Louis, Mo., USA) for 2 hours at 37 degrees C. in AIM-V (Invitrogen Japan, Tokyo, Japan) containing 2% heat-inactivated autologous plasma. The cells were then irradiated (40 Gy) and incubated with the CD8^+ T cells. […] After 2 days, these cultures were supplemented with human recombinant IL-2 (PeproTech, Rocky Hill, N.J., USA) to a final concentration of 20 IU/mL. Two additional weekly stimulations with peptide-loaded autologous DCs, using the same procedure, were carried out on days 7 and 14. Six days after the last stimulation, the antigen-specific responses of the induced CTLs were investigated by IFN-gamma ELISPOT assay and ^51Cr release assay. […] For ^51Cr release assay, CTLs were co-cultured with peptide-pulsed T2 cells or cancer cells as a target cells (5×10^3/well) at the indicated effector/target ratio and a standard ^51Cr release assay was done as described previously (Komori H et al., Clin Cancer Res. 2006 May 1; 12 (9):2689-97)."}, "[4]": {"conditions": "CTLs from lung cancer patient 14 (SEQ ID NOs: 3 and 5) and patient 4 (SEQ ID NO: 6) (FIG. 5B)"}, "[5]": {"conditions": "CTLs induced from PBMCs of healthy donor 2 (FIG. 5A)"}, "[6]": {"conditions": "CTL lines generated from the healthy donors (FIG. 5D)"}, "[7]": {"conditions": "CTL lines generated from the healthy donors (FIG. 5C)"}, "[8]": {"conditions": "CTLs induced from PBMCs of healthy donors, not to T2 pulsed with irrelevant HIV-A2 peptide (FIG. 3B)"}},
  "note": "Residues, ends and D or L forms follow the SMILES beside them.",
  "data": [
    {"compound": "SLYNTYATL [HIV peptide]", "values": [
      {"measurement": "CD8+/CD107a+ cells of all CD8+ cells", "setting": "[1]", "value": 1.5, "unit": "%"}
    ]},
    {"compound": "CC(C)C[C@H](NC(=O)[C@@H](N)CC(N)=O)C(=O)N[C@@H](CO)C(=O)N[C@@H](CO)C(=O)N[C@@H](C)C(=O)N[C@@H](CCC(=O)O)C(=O)N[C@H](C(=O)N[C@H](C(=O)N[C@H](C(=O)O)C(C)C)C(C)C)C(C)C", "note": "[SEQ ID NO: 6, NLSSAEVVV] (H-NLSSAEVVV-OH)", "values": [
      {"measurement": "cytotoxicity", "setting": "[2]", "value": "exhibited cytotoxicity"},
      {"measurement": "cytotoxic activity", "setting": "SW620", "value": "exhibited cytotoxic activity"},
      {"measurement": "cytotoxic activity", "setting": "PANC-1 (IMP-3+, HLA-A2+); [4]", "value": "showed cytotoxic activity"},
      {"measurement": "cytotoxic activity", "setting": "PANC-1 (IMP-3+, HLA-A2+); [5]", "value": "showed cytotoxic activity"},
      {"measurement": "cytotoxic activity", "setting": "A549 (IMP-3+, HLA-A2-); [6]", "value": "not against"},
      {"measurement": "cytotoxicity", "setting": "A549 (IMP-3+, HLA-A2-)", "value": "without showing cytotoxicity"},
      {"measurement": "cytotoxic activity", "setting": "A549 (IMP-3+, HLA-A2-); [5]", "value": "no cytotoxic activity"},
      {"measurement": "cytotoxic activity", "setting": "SKHep1", "value": "exhibited cytotoxic activity"},
      {"measurement": "cytotoxicity", "setting": "MCF7 (IMP-3-, HLA-A2+); [7]", "value": "not against"},
      {"measurement": "cytotoxic activity", "setting": "MCF7 (IMP-3-, HLA-A2+); [6]", "value": "not against"},
      {"measurement": "cytotoxicity", "setting": "MCF7 (IMP-3-, HLA-A2+); [4]", "value": "without showing cytotoxicity"},
      {"measurement": "cytotoxic activity", "setting": "MCF7 (IMP-3-, HLA-A2+); [5]", "value": "no cytotoxic activity"},
      {"measurement": "cytotoxic activity", "setting": "[3]; [8]", "value": "exhibited cytotoxic activity"}
    ]},
    {"compound": "CC(C)C[C@H](NC(=O)[C@H](CC(C)C)NC(=O)[C@@H](N)CCCNC(=N)N)C(=O)N[C@H](C(=O)N1CCC[C@H]1C(=O)N[C@H](C(=O)N[C@@H](CCC(N)=O)C(=O)N[C@@H](Cc1ccccc1)C(=O)N[C@H](C(=O)O)C(C)C)[C@@H](C)O)C(C)C", "note": "[SEQ ID NO: 1, RLLVPTQFV] (H-RLLVPTQFV-OH)", "values": [
      {"measurement": "cytotoxicity", "setting": "[2]", "value": "exhibited cytotoxicity"},
      {"measurement": "cytotoxic activity", "setting": "SW620", "value": "exhibited cytotoxic activity"},
      {"measurement": "cytotoxic activity", "setting": "PANC-1 (IMP-3+, HLA-A2+); [5]", "value": "showed cytotoxic activity"},
      {"measurement": "cytotoxic activity", "setting": "A549 (IMP-3+, HLA-A2-); [6]", "value": "not against"},
      {"measurement": "cytotoxic activity", "setting": "A549 (IMP-3+, HLA-A2-); [5]", "value": "no cytotoxic activity"},
      {"measurement": "cytotoxic activity", "setting": "SKHep1", "value": "exhibited cytotoxic activity"},
      {"measurement": "cytotoxicity", "setting": "MCF7 (IMP-3-, HLA-A2+); [7]", "value": "not against"},
      {"measurement": "cytotoxic activity", "setting": "MCF7 (IMP-3-, HLA-A2+); [6]", "value": "not against"},
      {"measurement": "cytotoxic activity", "setting": "MCF7 (IMP-3-, HLA-A2+); [5]", "value": "no cytotoxic activity"},
      {"measurement": "cytotoxic activity", "setting": "[3]; [8]", "value": "exhibited cytotoxic activity"}
    ]},
    {"compound": "CC[C@H](C)[C@H](NC(=O)[C@@H](N)CCCCN)C(=O)N1CCC[C@H]1C(=O)N[C@H](C(=O)N[C@@H](CO)C(=O)NCC(=O)N1CCC[C@H]1C(=O)N[C@@H](Cc1ccccc1)C(=O)N[C@@H](CC(C)C)C(=O)O)C(C)C", "note": "[SEQ ID NO: 5, KIPVSGPFL] (H-KIPVSGPFL-OH)", "values": [
      {"measurement": "cytotoxic activity", "setting": "PANC-1 (IMP-3+, HLA-A2+); [4]", "value": "showed cytotoxic activity"},
      {"measurement": "cytotoxic activity", "setting": "PANC-1 (IMP-3+, HLA-A2+); [5]", "value": "showed cytotoxic activity"},
      {"measurement": "cytotoxicity", "setting": "A549 (IMP-3+, HLA-A2-)", "value": "without showing cytotoxicity"},
      {"measurement": "cytotoxic activity", "setting": "A549 (IMP-3+, HLA-A2-); [5]", "value": "no cytotoxic activity"},
      {"measurement": "cytotoxicity", "setting": "MCF7 (IMP-3-, HLA-A2+); [4]", "value": "without showing cytotoxicity"},
      {"measurement": "cytotoxic activity", "setting": "MCF7 (IMP-3-, HLA-A2+); [5]", "value": "no cytotoxic activity"},
      {"measurement": "cytotoxic activity", "setting": "[3]; CTLs from PBMCs of lung cancer patient 3, no activity to T2 pulsed with HIV peptide (FIG. 4B)", "value": "showed cytotoxic activity"}
    ]},
    {"compound": "CC[C@H](C)[C@H](NC(=O)[C@H](CCC(=O)O)NC(=O)[C@H](CCC(N)=O)NC(=O)[C@@H](NC(=O)[C@@H](N)CCCCN)[C@@H](C)CC)C(=O)N[C@@H](CC(C)C)C(=O)N[C@H](C(=O)N[C@@H](CCC(N)=O)C(=O)N[C@H](C(=O)O)C(C)C)[C@@H](C)O", "note": "[SEQ ID NO: 3, KIQEILTQV] (H-KIQEILTQV-OH)", "values": [
      {"measurement": "cytotoxic activity", "setting": "PANC-1 (IMP-3+, HLA-A2+); [4]", "value": "showed cytotoxic activity"},
      {"measurement": "cytotoxic activity", "setting": "PANC-1 (IMP-3+, HLA-A2+); [5]", "value": "showed cytotoxic activity"},
      {"measurement": "cytotoxicity", "setting": "A549 (IMP-3+, HLA-A2-)", "value": "without showing cytotoxicity"},
      {"measurement": "cytotoxic activity", "setting": "A549 (IMP-3+, HLA-A2-); [5]", "value": "no cytotoxic activity"},
      {"measurement": "cytotoxicity", "setting": "MCF7 (IMP-3-, HLA-A2+); [4]", "value": "without showing cytotoxicity"},
      {"measurement": "cytotoxic activity", "setting": "MCF7 (IMP-3-, HLA-A2+); [5]", "value": "no cytotoxic activity"},
      {"measurement": "cytotoxic activity", "setting": "[3]; CTLs from PBMCs of lung cancer patient 4, no activity to T2 pulsed with HIV peptide (FIG. 4B)", "value": "showed cytotoxic activity"}
    ]}
  ]
}
